Laboratory results taken from patent publication US4450269A, “Mono-5-substituted-3-chloro-4H-1,2,6-thiadiazin-4-one antifungal agents” (FMC Corporation, priority 1980, dated 1984).

Legend:
[1] = test system: Pythium ultimum and Rhizoctonia solani; test: Soil/seed treatment, cucumber damping-off complex; assay type: in vivo; conditions: 150 ppm suspension, 3.75 to 3.8 mg per pot
Experimental: Containers having a volume of about 0.25 l. were 2/3 filled with topsoil and 25 cucumber c.v. [Straight Eight` seeds deposited on the soil surface of each pot. A suspension containing 150 ppm of the test chemical was poured over the seeds and into the soil in sufficient quantity to provide 3.75 to 3.8 mg active ingredient per pot.
Fungi used in this test were Pythium ultimum and Rhizoctonia solani. These fungi were each grown on potato dextrose agar for three to six days. The agar plus mycelium was then minced in a blender with water and 10 ml of the resulting slurry of minced mycelium poured over the seeds.
Following inoculation approximately 15 mm of topsoil was spread over the seeds, the container capped and incubated at 4° C. in darkness for three days, then transferred to a greenhouse (27° C.) for 10-14 days, at which time stand counts were made. Captan was used as a standard for comparison. Based on stand counts on Efficacy Index was calculated for each test chemical as follows: [formula]

Uromyces phaseoli = conditions: in vivo

Substance: 3-chloro-5-[methylaminocarbonyloxy)phenoxyl]-4H-1,2,6-thiadiazin-4-one [Compound 36]
- Efficacy Index, seed/soil, cucumber damping-off complex [1]: 13
- Percent Disease Control, foliar, bean rust (Uromyces phaseoli): 100%
